In patent US8911717B2, “Polymalic acid-based multifunctional drug delivery system” (Cedars-Sinai Medical Center, priority 2003, dated 2014):

Experiments:
fresh human RBCs = assay: red blood cell (RBC) hemolysis assay (membrane disruptive activity); format: cell-based; details: pH 5.85 or pH 5.5; 2.5 nmol/10^8 RBCs; 1 h at 37° C.; absorbance of supernatant at 541 nm
Protocol: The fresh human RBCs were isolated by centrifugation of whole human blood at 2000 g for 5 min. The RBCs were washed three times with cold 100 mM sodium phosphate buffer of the desired pH (pH 5.85 or pH 5.5). The final pellet was resuspended in the same buffer to give a solution with […] RBCs per 1 ml. The polymers were dissolved in 100 mM dibasic sodium phosphate buffer at the desired pH at a concentration of 10 mg/ml. The polymer concentration was 2.5 nmol/10^8 RBCs. Hemolysis in distilled water was used to produce 100% lysis. RBCs in buffer with no polymer was used as reference controls. The hemolysis assay was performed by adding the polymer solution to the suspended RBCs in 1 ml of the appropriate buffer. The RBCs were mixed by inverting the tube several times, and incubated for 1 h in a 37° C. water bath. After incubation, the RBCs were centrifuged for […] at 13,500×g to sediment intact cells and the lysis was determined by measuring the absorbance of the supernatants at 541 nm which reflects the amount of hemoglobin released by the RBCs. The relative increase 100(A-Ao)/Atotal in absorbance at 541 nm wavelength of the cell-free supernatant was measured as an indicator of membrane rupture. […]

[1] = tested on: protein kinase CK2 α chain; assay: Western blot of CK2 expression in cell lysates; format: cell-based, human; details: U251MG glioma cells treated for 3 days; compared to untreated control or EPEI-treated control
Protocol: The protein kinase CK2 complex is a tetramer comprised of catalytic α, α′ subunits and regulatory […] subunits that form complexes such as α2β2, αα′β2 and α′2β2. To achieve downregulation of CK2, the antisense oligonucleotides against the CK2 catalytic subunit a were conjugated to PMLA. Morpholino™-NH2 antisense oligonucleotides to the protein kinase CK2 catalytical domain a chain purchased from Gene Tools (USA) were as follows:
Inhibition of CK2 expression in vitro was assessed in the cell lysates of cultured glioma cell line U251MG treated for 3 days with nanoconjugates containing Morpholino antisense oligonucleotides CK2a-1, CK2a-2 or CK2a-3.

Substance	membrane disruptive activity (effect on RBC membranes) (fresh human RBCs)	CK2 α chain expression, Western blot [1]
PMLA/mAB OX-26/morpholino antisense oligonucleotide/L-valine/2-mercaptoethylamine/mPEG-NH2 conjugate [PMLA-PEG-Valine-AS-mAB]	infer membrane destabilization	–
CK2a-2: PMLA nanoconjugate containing Morpholino antisense oligonucleotide CK2a-2, SEQ ID NO: 4, CCTGCTTGGCACGGGTCCCGACAT (all phosphorodiamidate morpholino (PMO); amine-modified morpholino conjugated to polymalic acid nanoconjugate carrier, further chemistry not fully specified)	–	reduction
CK2a-1: PMLA nanoconjugate containing Morpholino antisense oligonucleotide CK2a-1, SEQ ID NO: 3, GATCTGGCAGTCACTGTGTTCAGAA (all phosphorodiamidate morpholino (PMO); amine-modified morpholino conjugated to polymalic acid nanoconjugate carrier, further chemistry not fully specified)	–	reduction
PMLA/L-valine/2-mercaptoethylamine/mPEG-NH2 conjugate [PMLA-PEG-Valine]	infer membrane destabilization	–
CK2a-3: PMLA nanoconjugate containing Morpholino antisense oligonucleotide CK2a-3, SEQ ID NO: 5, CGGACAAAGCTGGACTTGATGTTT (all phosphorodiamidate morpholino (PMO); amine-modified morpholino conjugated to polymalic acid nanoconjugate carrier, further chemistry not fully specified)	–	reduction
